What was measured:
[1] = target: T1, nucleotide exchange on hKRASG12C mediated by hSOS1 (Homo sapiens, UniProt Q07889); assay: Guanine nucleotide exchange assay (GNEA, HTRF); format: biochemical; conditions: HIS-hSOS1 564-1049aa mediated GTP loading onto GST-hKRASG12C 1-169aa, read-out: Guanine nucleotide exchange inhibition IC50
T1 construct: HIS-hSOS1, 564-1049aa mediated GTP loading onto GST-hKRASG12C; His (N); made in house
T1 sequence (Q07889 564-1049): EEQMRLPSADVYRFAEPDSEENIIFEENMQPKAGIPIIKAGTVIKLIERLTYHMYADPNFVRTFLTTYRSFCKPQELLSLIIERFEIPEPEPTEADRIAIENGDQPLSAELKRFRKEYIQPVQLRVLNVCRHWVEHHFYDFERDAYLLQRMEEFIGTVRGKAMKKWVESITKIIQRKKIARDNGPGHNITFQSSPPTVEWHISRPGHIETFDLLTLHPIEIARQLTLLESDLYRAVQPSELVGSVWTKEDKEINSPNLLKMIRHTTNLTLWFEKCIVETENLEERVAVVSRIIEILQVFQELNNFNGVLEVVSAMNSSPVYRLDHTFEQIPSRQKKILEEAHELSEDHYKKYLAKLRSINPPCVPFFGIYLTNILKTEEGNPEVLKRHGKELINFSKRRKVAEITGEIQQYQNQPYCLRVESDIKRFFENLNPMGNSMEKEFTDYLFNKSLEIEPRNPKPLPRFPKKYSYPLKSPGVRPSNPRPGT
Experimental: Example-154: Guanine nucleotide exchange assay (GNEA) GNEA assay was conducted to evaluate the effects of compounds on the nucleotide exchange on hKRASG12C mediated by hSOS1. Inhibitory effect of compounds on HIS-hSOS1, 564-1049aa mediated GTP loading onto GST-hKRASG12C, 1-169aa both expressed and purified in-house was assessed using HTRF detection technology in biochemical assay. Compounds were pre-incubated with hSOS1 working solution containing 10-50 nM hSOS1 and 200 nM EDA-GTP-DY-647P1 (Custom manufactured, Jena Biosciences) per well of a 384 well plate (Perkin Elmer, Cat #6007290) for 10 min at 20° C. in the assay buffer containing 10 mM HEPES, pH 7.4, 150 mM NaCl, 5 mM MgCl2, 1 mM DTT, 0.05% BSA fraction V and 0.0025% Igepal. Reaction was initiated by adding working solution of hKRASG12C containing 25-125 nM hKRASG12C and MAb Anti-GST-Tb (#61GSTTLA, Cisbio BioAssays) in assay buffer. Total assay volume was 15 μL. Reaction was continued for 30-60 min at 20° C. HTRF signal was recorded in PHERAStar microplate reader. Ratio of signal obtained at 665 nm and 620 nm was used to compute the percent inhibition of compound as follows.

[2] = target: T2, protein-protein interaction between hSOS1 and hKRASG12C (Homo sapiens, UniProt Q07889); assay: KRAS-SOS1 interaction assay (HTRF); format: binding; conditions: GST-hSOS1 564-1049aa, HIS-hKRASG12C, read-out: KRAS-SOS1 Interaction inhibition IC50
T2 construct: GST-hSOS1, 564-1049aa expressed and purified in-house
T2 sequence (Q07889 564-1049): T1 sequence (Q07889 564-1049)
Experimental: Interaction assay was conducted to evaluate the ability of the compounds to disrupt the protein-protein interactions between hSOS1 and hKRASG12C. Inhibitory effect of compounds on GST-hSOS1, 564-1049aa expressed and purified in-house and HIS-hKRASG12C (R06-32DH, SignalChem) interaction was assessed using HTRF detection technology in biochemical assay. Compounds were pre-incubated with 10-50 nM working solution of hSOS1 per well of a 384 well plate (Perkin Elmer, Cat #6007290) for 10 min at 20° C. in the assay buffer containing 5 mM HEPES, pH 7.4, 150 mM NaCl, 10 mM EDTA, 1 mM DTT, 0.05% BSA fraction V and 0.0025% Igepal. Reaction was initiated by adding 100-300 nM working solution of hKRASG12C in assay buffer. Total assay volume was 15 μL. Reaction was continued for 30-60 min at 20° C. Then detection solution containing MAb Anti-GST-d2 (#61GSTDLA, Cisbio BioAssays) and MAb Anti-HIS-Tb (#61HISTLA, Cisbio BioAssays), all prepared in HTRF detection buffer (#61DB10RDF, Cisbio BioAssays) was added and further incubated for 30-60 min at 20° C. HTRF signal was recorded in PHERAStar microplate reader. Ratio of signal obtained at 665 nm and 620 nm was used to compute the percent inhibition of compound utilizing the following formula: […]

[3] = system: pERK after EGF stimulation in DLD1 cells; assay: ERK phosphorylation assay (alphascreen pERK); format: cell-based; conditions: Homo sapiens, DLD-1, 2 h compound, 200 ng/ml hEGF for 5 minutes, read-out: ERK phosphorylation inhibition IC50
Experimental: Compounds were tested for their ability to inhibit pERK after EGF stimulation in DLD1 cells. Cells were seeded at 0.2 million cells per well in 96 well cell binding tissue culture plate in 100 μL complete media and were allowed to settle overnight (16 to 20 h). On the following day, cells were treated with various concentrations of test compounds for 2 h followed by stimulation with 200 ng/ml hEGF (diluted in PBS) for 5 minutes. Cells were then washed once with PBS and lysed in freshly prepared lysis buffer (provided with alphascreen surefire ERK1/2 p-T202/Y204 assay kit, cat no: TGRESB10K, Perkin Elmer). Lysis was carried out in plate shaker for 10-15 mins. Lysate was transferred to […] white opti-plate (Perkin Elmer) and alphascreen for pERK was carried out as per manufacturer's instructions. Plate was read after 2 h incubation in plate shaker at […] 300 RPM, 25-28° C. The difference between the unstimulated and stimulated Vehicle control is considered as 100% ERK phosphorylation, and % inhibition of compounds is calculated accordingly.

SMILES | IC50 [1] | IC50 [2] | IC50 [3]
COC1(C)C(=O)N(C)c2cc3nc(C)nc(N[C@H](C)c4cccc(C(F)(F)C(C)(C)O)c4F)c3cc21 (mixture of isomers) [Compound 96, (R&S)-4-(((R)-1-(3-(1,1-difluoro-2-hydroxy-2-methylpropyl)-2-fluorophenyl)ethyl)amino)-6-methoxy-2,6,8-trimethyl-6,8-dihydro-7H-pyrrolo[3,2-g]quinazolin-7-one] | 1 to 30 nM | 1 to 10 nM | 1 to 200 nM
Cc1nc(N[C@H](C)c2cc(N)cc(C(F)(F)F)c2)c2cc3c(cc2n1)OCCN3C [Compound 10, (R)—N-(1-(3-amino-5-(trifluoromethyl)phenyl)ethyl)-2,6-dimethyl-7,8-dihydro-6H-[1,4]oxazino[3,2-g]quinazolin-4-amine] | 31 to 130 nM | 1 to 10 nM | –
Cc1nc(N[C@H](C)c2cccc(C(F)(F)C(C)(C)O)c2F)c2cc3c(cc2n1)OC(C)(C)C(N1CCOCC1)=N3 [Compound 26, (R)-1,1-Difluoro-1-(2-fluoro-3-(1-((2,8,8-trimethyl-7-morpholino-8H [1,4]oxazino[3,2-g]quinazolin-4-yl)amino)ethyl)phenyl)-2-methylpropan-2-ol] | – | – | 201 to 500 nM
Cc1nc(N[C@H](C)c2cccc(C(F)(F)C(C)(C)O)c2F)c2cc3c(cc2n1)OC(C)(C)C(=O)N3C [Compound 33, (R)-4-((1-(3-(1,1-Difluoro-2-hydroxy-2-methylpropyl)-2-fluorophenyl)ethyl)amino)-2,6,8,8-tetramethyl-6H-[1,4]oxazino[3,2-g]quinazolin-7(8H)-one] | – | – | 1 to 200 nM
Cc1nc(N[C@H](C)c2cccc(C(F)(F)C(C)(C)O)c2F)c2cc3c(cc2n1)n(C)c(=O)c(=O)n3C [Compound 40, (R)-4-((1-(3-(1,1-Difluoro-2-hydroxy-2-methylpropyl)-2-fluorophenyl)ethyl)amino)-2,6,9-trimethyl-6,9-dihydropyrazino[2,3-g]quinazoline-7,8-dione] | – | – | 201 to 500 nM
CCN1C(=O)C(C)(C)Oc2cc3nc(C)nc(N[C@H](C)c4cccc(C(F)(F)C(C)(C)O)c4F)c3cc21 [Compound 41, (R)-4-((1-(3-(1,1-difluoro-2-hydroxy-2-methylpropyl)-2-fluorophenyl)ethyl)amino)-6-ethyl-2,8,8-trimethyl-6H-[1,4]oxazino[3,2-g]quinazolin-7(8H)-one] | – | – | 201 to 500 nM
Cc1nc(N[C@H](C)c2cccc(C(F)(F)C(C)(C)O)c2)c2cc3c(cc2n1)OC(C)(C)C(=O)N3C [Compound 57, (R)-4-((1-(3-(1,1-difluoro-2-hydroxy-2-methylpropyl)phenyl)ethyl)amino)-2,6,8,8-tetramethyl-6H-[1,4]oxazino[3,2-g]quinazolin-7(8H)-one] | – | – | 1 to 200 nM
Cc1nc(N[C@H](C)c2cccc(C(F)(F)C(C)(C)O)c2F)c2cc3c(cc2n1)C(C)(C)C(=O)N3C1CC1 [Compound 65, (R)-6-cyclopropyl-4-((1-(3-(1,1-difluoro-2-hydroxy-2-methylpropyl)-2-fluorophenyl)ethyl)amino)-2,8,8-trimethyl-6,8-dihydro-7H-pyrrolo[2,3-g]quinazolin-7-one] | – | – | 1 to 200 nM
Cc1nc(N[C@H](C)c2cccc(C(F)(F)CO)c2F)c2cc3c(cc2n1)C(C)(C)C(=O)N3C [Compound 72, (R)-4-((1-(3-(1,1-difluoro-2-hydroxyethyl)-2-fluorophenyl)ethyl)amino)-2,6,8,8-tetramethyl-6,8-dihydro-7H-pyrrolo[2,3-g]quinazolin-7-one] | 1 to 30 nM | 1 to 10 nM | –
Cc1nc(N[C@H](C)c2cccc(C(F)(F)C(C)(C)O)c2F)c2cc3c(cc2n1)C(C)(C)C(=O)N3C(C)C [Compound 78, (R)-4-((1-(3-(1,1-difluoro-2-hydroxy-2-methylpropyl)-2-fluorophenyl)ethyl)amino)-6-isopropyl-2,8,8-trimethyl-6H-pyrrolo[2,3-g]quinazolin-7(8H)-one] | – | – | 1 to 200 nM
Cc1nc(N[C@H](C)c2cccc(C(F)(F)C(C)(C)O)c2F)c2cc3c(cc2n1)C1(CC1)C(=O)N3C [Compound 79, (R)-4′-((1-(3-(1,1-difluoro-2-hydroxy-2-methylpropyl)-2-fluorophenyl)ethyl)amino)-2′,6′-dimethylspiro[cyclopropane-1,8′-pyrrolo[2,3-g]quinazolin]-7′(6′H)-one] | – | – | 1 to 200 nM
Cc1nc(N[C@H](C)c2cccc(C(F)(F)C(C)(C)O)c2F)c2cc3c(cc2n1)N(C)C(C)(C)N3C [Compound 108, (R)-1,1-difluoro-1-(2-fluoro-3-(1-((1,2,2,3,6-pentamethyl-2,3-dihydro-1H-imidazo[4,5-g]quinazolin-8-yl)amino)ethyl)phenyl)-2-methylpropan-2-ol] | – | – | 201 to 500 nM
Cc1nc(N[C@H](C)c2cccc(C(F)(F)C(C)(C)O)c2F)c2cc3c(cc2n1)oc(=O)n3C [Compound 111, (R)-8-((1-(3-(1,1-difluoro-2-hydroxy-2-methylpropyl)-2-fluorophenyl)ethyl)amino)-1,6-dimethyloxazolo[4,5-g]quinazolin-2(1H)-one] | – | – | 201 to 500 nM
Cc1nc(N[C@H](C)c2cccc(C(F)(F)C(C)(C)O)c2F)c2cc3c(cc2n1)CC(=O)N3C [Compound 113, (R)-4-((1-(3-(1,1-difluoro-2-hydroxy-2-methylpropyl)-2-fluorophenyl)ethyl)amino)-2,6-dimethyl-6,8-dihydro-7H-pyrrolo[2,3-g]quinazolin-7-one] | 31 to 130 nM | 1 to 10 nM | –
Cc1nc(N[C@H](C)c2cccc(C(F)(F)C(C)(C)O)c2F)c2cc3c(cc2n1)C(=O)N(C)C3(C)C [Compound 114, (R)-4-((1-(3-(1,1-difluoro-2-hydroxy-2-methylpropyl)-2-fluorophenyl)ethyl)amino)-2,6,6,7-tetramethyl-6,7-dihydro-8H-pyrrolo[3,4-g]quinazolin-8-one] | – | – | 1 to 200 nM
Cc1nc(N[C@H](C)c2cccc(C(F)(F)C(C)(C)O)c2F)c2cc3c(cc2n1)C(F)(F)C(=O)N3C [Compound 117, (R)-4-((1-(3-(1,1-difluoro-2-hydroxy-2-methylpropyl)-2-fluorophenyl)ethyl)amino)-8,8-difluoro-2,6-dimethyl-6,8-dihydro-7H-pyrrolo[2,3-g]quinazolin-7-one] | – | – | 201 to 500 nM

From patent US20260209247A1, “Substituted Tricyclic Compounds” (Lupin Limited, priority 2019, published 2026)
